Test results from US20070270436A1, “NOVEL AMINO- AND IMINO-ALKYLPIPERAZINES” (Recordati Ireland Limited, priority 2006, published 2007).
Like-named read-outs stand apart in the source and are kept apart here.

How the values were obtained:
5-HT1A receptors = target: T1, 5-HT1A receptors (Rattus norvegicus, UniProt P19327); assay: Inhibition of serotonergic syndrome (forepaw treading) induced by 8-OH-DPAT in rats (post-synaptic antagonism); type: in vivo; conditions: rat, 10 mg/kg p.o.
T1 construct: from tissue; host or cells: living male Sprague-Dawley rats (whole animal, behavioural read-out)
T1 sequence (P19327 1-422): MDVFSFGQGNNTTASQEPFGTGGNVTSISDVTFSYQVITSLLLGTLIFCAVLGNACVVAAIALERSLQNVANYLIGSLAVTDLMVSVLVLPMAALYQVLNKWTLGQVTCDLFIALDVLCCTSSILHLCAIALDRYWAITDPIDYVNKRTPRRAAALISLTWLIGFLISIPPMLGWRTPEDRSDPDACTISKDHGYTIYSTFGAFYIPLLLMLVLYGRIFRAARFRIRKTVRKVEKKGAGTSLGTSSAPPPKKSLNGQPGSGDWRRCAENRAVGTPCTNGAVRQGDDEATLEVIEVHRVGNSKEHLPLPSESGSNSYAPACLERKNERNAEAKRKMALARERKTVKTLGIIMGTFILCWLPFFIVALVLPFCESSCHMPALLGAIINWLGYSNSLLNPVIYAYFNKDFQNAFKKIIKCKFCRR
Method: The inhibitory effect of 5-HT1A-receptor antagonists on stereotyped forepaw treading induced in rats by subcutaneous injection of 8-OH-DPAT was evaluated by the method of Tricklebank (Tricklebank et al., Eur. J. Pharmacol., 117: 15, 1985) with minor modifications as described below.
Male Sprague-Dawley rats [Crl: CD® (SD) IGS BR] weighing 150-175 g from Charles River Italia were used. The animals were housed with free access to food and water and maintained on a forced 12-hour-light/12-hour-dark cycle at 22-24° C. of temperature. On the day of the experiment, the rats were placed singly in clear plastic containers, 10-15 minutes before oral administration of the vehicle or compounds to be tested. For evaluation of antagonistic activity, the compounds were administered 1 and 4 hours before induction of stereotypy by 8-OH-DPAT (1 mg/kg subcutaneously). Observation sessions lasted 30 seconds and began 3 minutes after 8-OH-DPAT treatment and were repeated every 3 minutes over a period of 15 minutes.
The appearance of the symptoms induced by postsynaptic stimulation of 5-HT1A receptors was noted, and the intensity was scored using an intensity scale in which: 0=absent, 1=equivocal, 2=present and 3=intense. Behavioural scores for treated rats were accumulated throughout the observation time (5 observation periods) and expressed as mean values of 4 rats/dose. Change in mean values of treated animals in comparison with control (vehicle) group, expressed as per-cent inhibition, was used to quantify the antagonistic activity.
In order to quantitate the potency of the compound of Example 24 in inhibiting the stereotypy (forepaw treading) induced by 8-OH-DPAT, an ED50 value (dose inhibiting by 50% the forepaw treading) was evaluated by means of linear regression using the least square method.

[1] = target: T2, human 5HT1A-serotonergic receptor (Homo sapiens, UniProt P08908); assay: Radioligand binding to recombinant 5-HT1A receptor ([3H]8-OH-DPAT, HeLa cell membranes); conditions: 1 nM [3H]8-OH-DPAT; Ki from IC50 by the Cheng equation; read-out: Ki (nM), binding affinity for 5HT1A receptor
T2 construct: expressed in transfected cells; host or cells: HeLa (human), stably transfected; membranes
T2 sequence (P08908 1-422): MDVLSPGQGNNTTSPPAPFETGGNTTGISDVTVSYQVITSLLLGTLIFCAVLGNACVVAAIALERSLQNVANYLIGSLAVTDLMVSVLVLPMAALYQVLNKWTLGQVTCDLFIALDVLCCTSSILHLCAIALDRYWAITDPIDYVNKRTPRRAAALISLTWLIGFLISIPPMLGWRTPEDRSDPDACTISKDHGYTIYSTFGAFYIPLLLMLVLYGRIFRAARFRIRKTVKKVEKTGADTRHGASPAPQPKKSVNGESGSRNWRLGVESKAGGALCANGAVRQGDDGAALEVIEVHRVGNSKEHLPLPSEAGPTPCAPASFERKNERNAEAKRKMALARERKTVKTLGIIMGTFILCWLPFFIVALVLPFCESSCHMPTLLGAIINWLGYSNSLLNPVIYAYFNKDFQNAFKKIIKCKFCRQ
Method: Genomic clone G-21 encoding the human 5HT1A-serotonergic receptor was stably transfected in a human cell line (HeLa). HeLa cells were grown as monolayers in Dulbecco's modified Eagle medium (DMEM), containing 10% fetal bovine serum and gentamycin (100 μg/ml) at 37° C. in a humidified atmosphere of 5% CO2 and air. The cells were detached from the growth flask at 95% confluence by a cell scraper and were lysed in cold 5 mM Tris and 5 mM EDTA buffer (pH 7.4). The homogenates were centrifuged at 40000×g×20 minutes and the pellets were resuspended in a small volume of cold 5 mM Tris and 5 mM EDTA buffer (pH 7.4) and immediately frozen and stored at −70° C. until use. On the day of experiment, the cell membranes were resuspended in incubation buffer: 50 mM Tris (pH 7.4), 2.5 mM MgCl2, 10 μM pargyline (Fargin et al., Nature 335, 358-360, 1988). The membranes were incubated in a final volume of 0.32 ml for 30 minutes at 30° C. with 1 nM [^3H]8-OH-DPAT, in the absence or presence of the test compounds. Non-specific binding was determined in the presence of 10 μM 5-HT. Incubation was stopped by addition of cold Tris buffer and rapid filtration through UniFilter GF/C plate.
The affinity of the tested compounds was evaluated as inhibition of specific binding of the radioligand to 5-HT1A receptor (IC50) by using the non-linear curve-fitting program Allfit (De Lean et al., Am. J. Physiol. 235, E97-E102 (1978)). The IC50 value was converted to an affinity constant (Ki) by the equation of Cheng et al., Biochem. Pharmacol. 22, 3099-3108 (1973).

[2] = test system: rhythmic bladder-voiding contractions; assay: Rhythmic bladder-voiding contractions induced by bladder filling in anaesthetised rats; type: in vivo, rat; conditions: intravenous administration
Method: Female Sprague-Dawley rats weighing 225-275 g (Crl: CD® (SD) IGS BR, Charles River Italia) were used. The animals were housed with free access to food and water and maintained on a forced 12-hour alternating light-dark cycle at 22-24° C. for at least one week, except during the experiment. The activity on rhythmic bladder voiding contractions was evaluated according to the method of Dray (Dray J., Pharmacol. Methods, 13:157, 1985), with some modifications as in Guarneri (Guarneri, Pharmacol. Res. 27:173, 1993). Briefly, the rats were anaesthetised by subcutaneous injection of 1.25 g/kg (5 ml/kg) urethane, after which the urinary bladder was catheterised via the urethra using PE 50 polyethylene tubing filled with physiological saline. The catheter was tied in place with a ligature around the external urethral orifice and was connected to conventional pressure transducers (Statham P23 ID/P23 XL). […] The bladder was then filled via the recording catheter by incremental volumes of warm (37° C.) saline until reflex bladder-voiding contractions occurred (usually 0.8-1.5 ml). For intravenous injection of bioactive compounds, PE 50 polyethylene tubing filled with physiological saline was inserted into the jugular vein.
From the cystometrogram, the number of contractions recorded 15 minutes before (basal values) and after treatment, as well as the mean amplitude of these contractions (mean height of the peaks in mmHg), was evaluated.
Since most compounds produced an effect that was relatively rapid in onset and led to a complete cessation of bladder contractions, bioactivity was conveniently estimated by measuring the duration of bladder quiescence (i.e., the time during which no contractions occurred). The number of tested animals showing a reduction in the number of contractions higher than 30% of that observed in the basal period was recorded too.
The extrapolated doses which induced a reduction in the number of contractions greater than 30% in 50% of the treated rats (ED50) were also evaluated by the method of Bliss (Bliss C. I., Quart J. Pharm. Pharmacol. 11, 192-216, 1938).

[3] = 1 h before 8-OH-DPAT 1 mg/kg s.c., read-out: % Inhibition of forepaw treading, 1 h
[4] = 4 h before 8-OH-DPAT 1 mg/kg s.c., read-out: % Inhibition of forepaw treading, 4 h

Row | SMILES | inhibition at 10 mg/kg (5-HT1A receptors; [3]) [%] | Ki [1] [nM] | inhibition at 10 mg/kg (5-HT1A receptors; [4]) [%] | ED50 ([2]; Rattus norvegicus, read-out: ED50 (frequency) (extrapolated dose inducing a reduction of the number of contractions >30% in 50% of treated rats)) [mg/kg] | ED10 min (extrapolated dose inducing 10 minutes of disappearance of the contractions) [2] [mg/kg]
1 | COc1ccccc1N1CCN(CCC(C(=NO)C2CCCCC2)c2ccccc2F)CC1 (mixture of isomers) [Example 1, 1-Cyclohexyl-2-(2-fluorophenyl)-4-[4-(2-methoxyphenyl)-piperazin-1-yl]butan-1-one oxime] | 71 | 0.16 | – | – | –
2 | CONC(C1CCCCC1)C(CCN1CCN(c2ccccc2OC)CC1)c1ccccc1F (mixture of isomers) [Example 4, N-{1-Cyclohexyl-2-(2-fluorophenyl)-4-[4-(2-methoxyphenyl)piperazin-1-yl]butyl}-O-methylhydroxylamine] | 86 | 0.88 | 68 | – | –
3 | CON[C@H](C1CCCCC1)[C@H](CCN1CCN(c2ccccc2OC)CC1)c1ccccc1F (racemic) [Example 4b, (RS,RS)-N-{1-Cyclohexyl-2-(2-fluorophenyl)-4-[4-(2-methoxyphenyl)piperazin-1-yl]butyl}-O-methylhydroxylamine] | 71 | – | 67 | – | –
4 | COc1ccccc1N1CCN(CC[C@@H](c2ccccc2F)[C@@H](C2CCCCC2)N(C)C)CC1 (racemic) [Example 11, {(RS,SR)-1-Cyclohexyl-2-(2-fluorophenyl)-4-[4-(2-methoxyphenyl)-piperazin-1-yl]butyl}dimethylamine] | 56 | 1 | 56 | – | –
5 | COc1ccccc1N1CCN(CC[C@@H](c2ccccc2F)[C@H](NC(=O)N(C)C)C2CCCCC2)CC1 (racemic) [Example 21, 3-{(RS,SR)-1-Cyclohexyl-2-(2-fluorophenyl)-4-[4-(2-methoxyphenyl)-piperazin-1-yl]butyl}-1,1-dimethylurea] | 94 | 2.1 | 65 | – | –
6 | COc1ccc(Br)c(CN2CCN(CCC(c3ccccc3F)C(NC(C)=O)C3CCCCC3)CC2)c1 (centres unmarked) [Example 45, N-[4-[4-(2-Bromo-5-methoxybenzyl)piperazin-1-yl]-1-cyclohexyl-2-(2-fluoro-phenyl)butyl]acetamide] | – | 1.1 | – | – | –
7 | COc1ccc(Br)c(CN2CCN(CCC(c3ccccc3F)C(C3CCCCC3)N(C)C(C)=O)CC2)c1 (centres unmarked) [Example 46, N-[4-[4-(2-Bromo-5-methoxybenzyl)piperazin-1-yl]-1-cyclohexyl-2-(2-fluorophenyl)butyl]-N-methylacetamide] | – | 0.8 | – | – | –
8 | O=CNC(C1CCCCC1)C(CCN1CCN(c2cccc3[nH]cnc23)CC1)c1ccccc1F (centres unmarked) [Example 47, N-[4-[4-(1H-Benzimidazol-4-yl)piperazin-1-yl]-1-cyclohexyl-2-(2-fluoro-phenyl)butyl]formamide] | – | 0.8 | – | – | –
9 | NC(C1CCCCC1)C(CCN1CCN(c2cccc3[nH]cnc23)CC1)c1ccccc1F (centres unmarked) [Example 48, 4-[4-(1H-Benzimidazol-4-yl)piperazin-1-yl]-1-cyclohexyl-2-(2-fluorophenyl)butylamine] | – | 0.3 | – | – | –
10 | O=CNC(C1CCCCC1)C(CCN1CCN(c2cccc3[nH]ccc23)CC1)c1ccccc1F (centres unmarked) [Example 52, N-{1-Cyclohexyl-2-(2-fluorophenyl)-4-[4-(1H-indol-4-yl)piperazin-1-yl]butyl}formamide] | – | 2.3 | – | – | –
11 | Cc1c(-c2ccccc2)oc2c(C(=O)OCCN3CCCCC3)cccc2c1=O [Flavoxate, flavoxate] | – | – | – | 2.65 | >10
